Where two headings read alike, the source gives them in different places.
Test: Biodistribution of 99mTc complexes in rats
Format: in vivo, Australian Albino Wistar Rats
Details: for tissue uptake at 0.5 min / tissue uptake at 1 min / tissue uptake at 0.05 h / tissue uptake at 5 min / tissue uptake at 10 min: rat; for tissue uptake at 0.5 min: 30 sec
Description: A typical method of radiolabelling of the chelator was achieved by dissolving the chelator in a basic solution of saline. The pH was then adjusted to approx. 6 with HCl. Excess stannous chloride was added to the resultant solution followed by one equivalent volume of sodium ^99m TcO4 (10-50 mCi/ml). Final concentration of the chelator was approx. 1 mg/ml. The efficacy of labelling was determined by ITLC-SG. For each product only one main radiochemical species was observed. Each complex was diluted to 15 μCi/100 μl with saline. […] (See FIGS. 1A and 1B).
Selected data from biodistribution results of technetium-99m complexes of No. 1, No. 2 and No 4 in the liver, kidney and blood at 3 minutes is tabulated below.

[1] = blood, rats, read-out: biodistribution blood
[2] = bone, rats, read-out: biodistribution bone
[3] = brain, rats, read-out: biodistribution brain
[4] = eyes, rats, read-out: biodistribution eyes
[5] = heart, rats, read-out: biodistribution heart
[6] = kidneys, rats, read-out: biodistribution kidneys
[7] = liver, rats, read-out: biodistribution liver
[8] = lungs, rats, read-out: biodistribution lungs
[9] = muscle, rats, read-out: biodistribution muscle
[10] = pancreas, rats, read-out: biodistribution pancreas
[11] = skin, rats, read-out: biodistribution skin
[12] = spleen, rats, read-out: biodistribution spleen
[13] = stomach, rats, read-out: biodistribution stomach
[14] = tail, rats, read-out: biodistribution tail
[15] = thymus, rats, read-out: biodistribution thymus
[16] = thyroid, rats, read-out: biodistribution thyroid
[17] = total git, rats, read-out: biodistribution tot GIT

Question: What does the source list for `O=C(O)CN(CCN(CC(=O)O)CC(=O)Nc1ccc(Cl)cc1O)CC(=O)Nc1ccc(Cl)cc1O` [Compound 2]?
Answer: hepatobiliary passage (Tables 2 and 4): specifically traverse the hepatobiliary system; tissue uptake at 0.5 min [1]: 2.79 %ID/g; tissue uptake at 1 min [1]: 2.77 %ID/g; tissue uptake at 0.05 h (blood, rats, 3 minutes, selected data, read-out: Blood): 1.32 %ID/g; tissue uptake at 5 min [1]: 0.94 %ID/g; tissue uptake at 10 min [1]: 0.77 %ID/g; tissue uptake at 0.5 min [2]: 0.34 %ID/g; tissue uptake at 1 min [2]: 0.37 %ID/g; tissue uptake at 0.05 h (bone, rats, 3 min, read-out: biodistribution bone): 0.25 %ID/g; tissue uptake at 5 min [2]: 0.19 %ID/g; tissue uptake at 10 min [2]: 0.15 %ID/g; tissue uptake at 0.5 min [3]: 0.14 %ID/g; tissue uptake at 1 min [3]: 0.09 %ID/g; tissue uptake at 0.05 h (brain, rats, 3 min, read-out: biodistribution brain): 0.06 %ID/g; tissue uptake at 5 min [3]: 0.04 %ID/g; tissue uptake at 10 min [3]: 0.03 %ID/g; tissue uptake at 0.5 min [4]: 0.11 %ID/g; tissue uptake at 1 min [4]: 0.15 %ID/g; tissue uptake at 0.05 h (eyes, rats, 3 min, read-out: biodistribution eyes): 0.12 %ID/g; tissue uptake at 5 min [4]: 0.1 %ID/g; tissue uptake at 10 min [4]: 0.1 %ID/g; tissue uptake at 0.5 min [5]: 0.87 %ID/g; tissue uptake at 1 min [5]: 0.93 %ID/g; tissue uptake at 0.05 h (heart, rats, 3 min, read-out: biodistribution heart): 0.46 %ID/g; tissue uptake at 5 min [5]: 0.36 %ID/g; tissue uptake at 10 min [5]: 0.28 %ID/g; tissue uptake at 0.05 h (kidney, rats, 3 minutes, selected data, read-out: Kidney): 8.9 %ID/g; tissue uptake at 0.5 min [6]: 6.42 %ID/g; tissue uptake at 1 min [6]: 8.37 %ID/g; tissue uptake at 0.05 h (kidneys, rats, 3 min, read-out: biodistribution kidneys): 8.9 %ID/g; tissue uptake at 5 min [6]: 7.26 %ID/g; tissue uptake at 10 min [6]: 3.35 %ID/g; tissue uptake at 0.5 min [7]: 4.61 %ID/g; tissue uptake at 1 min [7]: 6.28 %ID/g; tissue uptake at 0.05 h (liver, rats, 3 minutes, selected data, read-out: Liver): 5.93 %ID/g; tissue uptake at 5 min [7]: 3.93 %ID/g; tissue uptake at 10 min [7]: 1.89 %ID/g; tissue uptake at 0.5 min [8]: 1.2 %ID/g; tissue uptake at 1 min [8]: 1.17 %ID/g; tissue uptake at 0.05 h (lungs, rats, 3 min, read-out: biodistribution lungs): 0.79 %ID/g; tissue uptake at 5 min [8]: 0.59 %ID/g; tissue uptake at 10 min [8]: 0.48 %ID/g; tissue uptake at 0.5 min [9]: 0.22 %ID/g; tissue uptake at 1 min [9]: 0.24 %ID/g; tissue uptake at 0.05 h (muscle, rats, 3 min, read-out: biodistribution muscle): 0.2 %ID/g; tissue uptake at 5 min [9]: 0.16 %ID/g; tissue uptake at 10 min [9]: 0.11 %ID/g; tissue uptake at 0.5 min [10]: 0.49 %ID/g; tissue uptake at 1 min [10]: 0.66 %ID/g; tissue uptake at 0.05 h (pancreas, rats, 3 min, read-out: biodistribution pancreas): 0.44 %ID/g; tissue uptake at 5 min [10]: 0.52 %ID/g; tissue uptake at 10 min [10]: 0.27 %ID/g; tissue uptake at 0.5 min [11]: 0.29 %ID/g; tissue uptake at 1 min [11]: 0.45 %ID/g; tissue uptake at 0.05 h (skin, rats, 3 min, read-out: biodistribution skin): 0.42 %ID/g; tissue uptake at 5 min [11]: 0.35 %ID/g; tissue uptake at 10 min [11]: 0.33 %ID/g; tissue uptake at 0.5 min [12]: 0.62 %ID/g; tissue uptake at 1 min [12]: 0.58 %ID/g; tissue uptake at 0.05 h (spleen, rats, 3 min, read-out: biodistribution spleen): 0.33 %ID/g; tissue uptake at 5 min [12]: 0.25 %ID/g; tissue uptake at 10 min [12]: 0.16 %ID/g; tissue uptake at 0.5 min [13]: 0.41 %ID/g; tissue uptake at 1 min [13]: 0.68 %ID/g; tissue uptake at 0.05 h (stomach, rats, 3 min, read-out: biodistribution stomach): 2.08 %ID/g; tissue uptake at 5 min [13]: 0.98 %ID/g; tissue uptake at 10 min [13]: 0.9 %ID/g; tissue uptake at 0.5 min [14]: 0.81 %ID/g; tissue uptake at 1 min [14]: 0.66 %ID/g; tissue uptake at 0.05 h (tail, rats, 3 min, read-out: biodistribution tail): 0.64 %ID/g; tissue uptake at 5 min [14]: 1.16 %ID/g; tissue uptake at 10 min [14]: 0.55 %ID/g; tissue uptake at 0.5 min [15]: 0.39 %ID/g; tissue uptake at 1 min [15]: 0.37 %ID/g; tissue uptake at 0.05 h (thymus, rats, 3 min, read-out: biodistribution thymus): 0.27 %ID/g; tissue uptake at 5 min [15]: 0.17 %ID/g; tissue uptake at 10 min [15]: 0.15 %ID/g; tissue uptake at 0.5 min [16]: 1.41 %ID/g; tissue uptake at 1 min [16]: 1.71 %ID/g; tissue uptake at 0.05 h (thyroid, rats, 3 min, read-out: biodistribution thyroid): 0.81 %ID/g; tissue uptake at 5 min [16]: 0.58 %ID/g; tissue uptake at 10 min [16]: 0.44 %ID/g; tissue uptake at 0.5 min [17]: 0.48 %ID/g; tissue uptake at 1 min [17]: 0.58 %ID/g; tissue uptake at 0.05 h (total git, rats, 3 min, read-out: biodistribution tot GIT): 1.56 %ID/g; tissue uptake at 5 min [17]: 2.27 %ID/g; tissue uptake at 10 min [17]: 3.18 %ID/g; liver versus kidney uptake (rats): preference for the liver uptake as opposed to the kidney; biodistribution blood (rats, 3 min): 1.32 % Injected dose per gram; biodistribution liver (rats, 3 min): 5.93 % Injected dose per gram

Reference: US5807535A, “Metal complexes of hydroxyaryl containing aminocarboxylic acid chelating agents” (Australian Nuclear Science & Technology Organisation, priority 1992, dated 1998)
